Columns and labels:
Rat [1] = test: concentration in plasma after dosing; settings: 5 min; dosed: Dibromoacetic acid; 50 mg/kg; oral; Female; Harlan Sprague Dawley
Rat [2] = test: concentration in plasma after dosing; settings: dosed: Dibromoacetic acid, 25 mg/kg, oral, Male, Harlan Sprague Dawley
Rat [3] = test: concentration in plasma after dosing; settings: 20 min; dosed: Dibromoacetic acid; 10 mg/kg; iv; Male; F344
Rat [4] = test: concentration in plasma after dosing; settings: dosed: Dibromoacetic acid, 25 mg/kg, oral, Male, Harlan Sprague Dawley; remark: listed apart in the source
Rat [5] = test: concentration in plasma after dosing; settings: 5 min; dosed: Dibromoacetic acid; 25 mg/kg; oral; Male; Harlan Sprague Dawley
Rat [6] = test: concentration in plasma after dosing; settings: dosed: Dibromoacetic acid, 25 mg/kg, oral, Male, Harlan Sprague Dawley; remark: listed apart in the source
Rat [7] = test: concentration in plasma after dosing; settings: dosed: Dibromoacetic acid, 25 mg/kg, oral, Male, Harlan Sprague Dawley; remark: listed apart in the source
Rat [8] = test: concentration in plasma after dosing; settings: 0.5 h; dosed: Dibromoacetic acid; 25 mg/kg; oral; Male; Harlan Sprague Dawley
Rat [9] = test: concentration in plasma after dosing; settings: dosed: Dibromoacetic acid, 25 mg/kg, oral, Female, Harlan Sprague Dawley
Rat [10] = test: concentration in plasma after dosing; settings: 5 min; dosed: Dibromoacetic acid; 25 mg/kg; oral; Male; Harlan Sprague Dawley; remark: listed apart in the source
Rat [11] = test: concentration in plasma after dosing; settings: 0.5 h; dosed: Dibromoacetic acid; 25 mg/kg; oral; Male; Harlan Sprague Dawley; remark: listed apart in the source
Rat [12] = test: concentration in plasma after dosing; settings: dosed: Dibromoacetic acid, 25 mg/kg, oral, Male, Harlan Sprague Dawley; remark: listed apart in the source
Rat [13] = test: concentration in plasma after dosing; settings: dosed: Dibromoacetic acid, 25 mg/kg, oral, Male, Harlan Sprague Dawley; remark: listed apart in the source
Rat [14] = test: concentration in plasma after dosing; settings: 40 min; dosed: Dibromoacetic acid; 10 mg/kg; iv; Male; F344
Rat [15] = test: concentration in plasma after dosing; settings: 40 min; dosed: Dibromoacetic acid; 10 mg/kg; iv; Male; F344; remark: listed apart in the source
Rat [16] = test: concentration in plasma after dosing; settings: dosed: Dibromoacetic acid, 25 mg/kg, oral, Male, Harlan Sprague Dawley; remark: listed apart in the source
Rat [17] = test: concentration in plasma after dosing; settings: dosed: Dibromoacetic acid, 10 mg/kg, iv, Male, F344
Rat [18] = test: concentration in plasma after dosing; settings: dosed: Dibromoacetic acid, 25 mg/kg, oral, Male, Harlan Sprague Dawley; remark: listed apart in the source
Rat [19] = test: concentration in plasma after dosing; settings: dosed: Dibromoacetic acid, 110 mg/kg, iv, Female, Harlan Sprague-Dawley
Rat [20] = test: concentration in plasma after dosing; settings: dosed: Dibromoacetic acid, 10 mg/kg, iv, Male, F344; remark: listed apart in the source
Rat [21] = test: concentration in plasma after dosing; settings: dosed: Dibromoacetic acid, 25 mg/kg, oral, Male, Harlan Sprague Dawley; remark: listed apart in the source
Rat [22] = test: concentration in plasma after dosing; settings: dosed: Dibromoacetic acid
Rat [23] = test: concentration in plasma after dosing; settings: dosed: Dibromoacetic acid, 25 mg/kg, oral, Male, Harlan Sprague Dawley; remark: listed apart in the source
Rat [24] = test: concentration in plasma after dosing; settings: dosed: Dibromoacetic acid, 10 mg/kg, iv, Male, F344; remark: listed apart in the source
Rat [25] = test: concentration in plasma after dosing; settings: 10 min; dosed: Dibromoacetic acid; 10 mg/kg; iv; Male; F344
Rat [26] = test: concentration in plasma after dosing; settings: dosed: Dibromoacetic acid, 110 mg/kg, iv, Female, Harlan Sprague-Dawley; remark: listed apart in the source
Rat [27] = test: concentration in plasma after dosing; settings: 20 min; dosed: Dibromoacetic acid; 10 mg/kg; iv; Male; F344; remark: listed apart in the source
Rat [28] = test: concentration in plasma after dosing; settings: 5 min; dosed: Dibromoacetic acid; 25 mg/kg; oral; Male; Harlan Sprague Dawley; remark: listed apart in the source
Rat [29] = test: concentration in plasma after dosing; settings: dosed: Dibromoacetic acid, 25 mg/kg, oral, Male, Harlan Sprague Dawley; remark: listed apart in the source
Rat [30] = test: concentration in plasma after dosing; settings: dosed: Dibromoacetic acid, 25 mg/kg, oral, Female, Harlan Sprague Dawley; remark: listed apart in the source
Rat [31] = test: concentration in plasma after dosing; settings: dosed: Dibromoacetic acid, 25 mg/kg, oral, Male, Harlan Sprague Dawley; remark: listed apart in the source
Rat [32] = test: concentration in plasma after dosing; settings: 0.5 h; dosed: Dibromoacetic acid; 25 mg/kg; oral; Male; Harlan Sprague Dawley; remark: listed apart in the source
Rat [33] = test: concentration in plasma after dosing; settings: dosed: Dibromoacetic acid, 25 mg/kg, oral, Male, Harlan Sprague Dawley; remark: listed apart in the source
Rat [34] = test: concentration in plasma after dosing; settings: 5 min; dosed: Dibromoacetic acid; 25 mg/kg; oral; Male; Harlan Sprague Dawley; remark: listed apart in the source
Rat [35] = test: concentration in plasma after dosing; settings: 10 min; dosed: Dibromoacetic acid; 10 mg/kg; iv; Male; F344; remark: listed apart in the source
Rat [36] = test: concentration in plasma after dosing; settings: dosed: Dibromoacetic acid, 25 mg/kg, oral, Male, Harlan Sprague Dawley; remark: listed apart in the source
Rat [37] = test: concentration in plasma after dosing; settings: 5 min; dosed: Dibromoacetic acid; 50 mg/kg; oral; Female; Harlan Sprague Dawley; remark: listed apart in the source
Rat [38] = test: concentration in plasma after dosing; settings: dosed: Dibromoacetic acid, 25 mg/kg, oral, Male, Harlan Sprague Dawley; remark: listed apart in the source
Rat [39] = test: concentration in plasma after dosing; settings: dosed: Dibromoacetic acid, 10 mg/kg, iv, Male, F344; remark: listed apart in the source
Rat [40] = test: concentration in plasma after dosing; settings: dosed: Dibromoacetic acid, 50 mg/kg, oral, Female, Harlan Sprague Dawley
Rat [41] = test: concentration in plasma after dosing; settings: 5 min; dosed: Dibromoacetic acid; 25 mg/kg; oral; Male; Harlan Sprague Dawley; remark: listed apart in the source
Rat [42] = test: concentration in plasma after dosing; settings: dosed: Dibromoacetic acid, 25 mg/kg, oral, Male, Harlan Sprague Dawley; remark: listed apart in the source
Rat [43] = test: concentration in plasma after dosing; settings: dosed: Dibromoacetic acid, 25 mg/kg, oral, Male, Harlan Sprague Dawley; remark: listed apart in the source
Rat [44] = test: concentration in plasma after dosing; settings: dosed: Dibromoacetic acid, 110 mg/kg, iv, Female, Harlan Sprague-Dawley; remark: listed apart in the source
Rat [45] = test: concentration in plasma after dosing; settings: 0.5 h; dosed: Dibromoacetic acid; 25 mg/kg; oral; Male; Harlan Sprague Dawley; remark: listed apart in the source
rat [46] = test: concentration in blood after dosing; settings: dosed: perchloroethylene, 12500 ppm, dermal, duration: 4 hr, male, F344
rat [47] = test: concentration in blood after dosing; settings: dosed: perchloroethylene, 12500 ppm, dermal, duration: 4 hr, male, F344; remark: listed apart in the source
rat [48] = test: concentration in blood after dosing; settings: dosed: perchloroethylene, 12500 ppm, dermal, duration: 4 hr, male, F344; remark: listed apart in the source
rat [49] = test: concentration in blood after dosing; settings: dosed: perchloroethylene, 12500 ppm, dermal, duration: 4 hr, male, F344; remark: listed apart in the source
Rat [50] = settings: dosed: dibromoacetic acid, 100 mg/kg, oral, Male, F344
Rat [51] = settings: dosed: dibromoacetic acid, 40 mg/kg, oral, Male, F344
Rat [52] = settings: dosed: dibromoacetic acid, 100 mg/kg, oral, Male, F344; remark: listed apart in the source
Rat [53] = settings: dosed: dibromoacetic acid, 40 mg/kg, oral, Male, F344; remark: listed apart in the source
Rat [54] = settings: dosed: dibromoacetic acid, 100 mg/kg, oral, Male, F344; remark: listed apart in the source
Rat [55] = settings: dosed: dibromoacetic acid, 40 mg/kg, oral, Male, F344; remark: listed apart in the source

O=C(O)C(Br)Br [Dibromoacetic acid]
Settings | concentration in plasma [ng/mL]
Rat [1] | 4030
Rat [3] | 1890
Rat [5] | 3390
Rat [8] | 12600
Rat [10] | 2210
Rat [11] | 8900
Rat [14] | 498
Rat [15] | 607
Rat [25] | 7190
Rat [27] | 2540
Rat [28] | 238
Rat [32] | 7630
Rat [34] | 294
Rat [35] | 6230
Rat [37] | 2800
Rat [41] | 1630
Rat [45] | 13500

Settings | concentration in plasma [ng/mL]
Rat [2], 1.5 h | 1560
Rat [2], 20 min | 24200
Rat [4], 1 h | 8770
Rat [4], 2 h | 1770
Rat [6], 1.5 h | 1550
Rat [6], 20 min | 13500
Rat [7], 0.75 h | 6410
Rat [7], 4 h | 772
Rat [9], 1 h | 8860
Rat [9], 2 h | 1240
Rat [12], 3 h | 1620
Rat [12], 10 min | 1880
Rat [13], 0.75 h | 10300
Rat [13], 4 h | 772
Rat [16], 1 h | 8050
Rat [16], 2 h | 1280
Rat [17], 1 h | 208
Rat [17], 2 min | 28100
Rat [18], 0.5 h | 15000
Rat [18], 6 h | 466
Rat [19], 2 h | 4660
Rat [19], 3 h | 459
Rat [20], 1.25 h | 101
Rat [20], 5 min | 14500
Rat [21], 0.75 h | 10200
Rat [21], 4 h | 1540
Rat [23], 0.75 h | 8790
Rat [23], 4 h | 592
Rat [24], 1.25 h | 301
Rat [24], 5 min | 12000
Rat [26], 1.5 h | 20900
Rat [26], 3 h | 472
Rat [29], 3 h | 646
Rat [29], 10 min | 5770
Rat [30], 1 h | 8120
Rat [30], 2 h | 887
Rat [31], 1.5 h | 2030
Rat [31], 20 min | 20900
Rat [33], 1.5 h | 1460
Rat [33], 20 min | 13200
Rat [36], 3 h | 476
Rat [36], 10 min | 6890
Rat [38], 3 h | 129
Rat [38], 10 min | 12100
Rat [39], 1 h | 186
Rat [39], 2 min | 28800
Rat [40], 3 h | 2050
Rat [40], 10 min | 9980
Rat [42], 3 h | 1720
Rat [42], 10 min | 853
Rat [43], 1.5 h | 3340
Rat [43], 20 min | 10700
Rat [44], 1.5 h | 17600
Rat [44], 2 h | 5370

concentration in plasma [ng/mL], Rat [22]
Settings | Female | Male
0.5 h, 25 mg/kg, oral, Harlan Sprague Dawley | – | 10800
0.75 h, 25 mg/kg, oral, Harlan Sprague Dawley | 8910 | 11500
1 h, 10 mg/kg, iv, F344 | – | 262
1 h, 25 mg/kg, oral, Harlan Sprague Dawley | 6860 | 8310
1.25 h, 10 mg/kg, iv, F344 | – | 97.1
1.5 h, 10 mg/kg, iv, F344 | – | 175
1.5 h, 25 mg/kg, oral, Harlan Sprague Dawley | – | 2000
1.5 h, 110 mg/kg, iv, Harlan Sprague-Dawley | 21600 | –
2 h, 25 mg/kg, oral, Harlan Sprague Dawley | 1460 | 1850
2 h, 110 mg/kg, iv, Harlan Sprague-Dawley | 4710 | –
2 min, 10 mg/kg, iv, F344 | – | 31000
3 h, 25 mg/kg, oral, Harlan Sprague Dawley | – | 751
3 h, 50 mg/kg, oral, Harlan Sprague Dawley | 1930 | –
3 h, 110 mg/kg, iv, Harlan Sprague-Dawley | 405 | –
4 h, 25 mg/kg, oral, Harlan Sprague Dawley | 966 | 106
5 min, 10 mg/kg, iv, F344 | – | 11500
5 min, 25 mg/kg, oral, Harlan Sprague Dawley | – | 411
5 min, 50 mg/kg, oral, Harlan Sprague Dawley | 8050 | –
6 h, 25 mg/kg, oral, Harlan Sprague Dawley | – | 109
10 min, 10 mg/kg, iv, F344 | – | 5230
10 min, 25 mg/kg, oral, Harlan Sprague Dawley | – | 4010
10 min, 50 mg/kg, oral, Harlan Sprague Dawley | 13500 | –
20 min, 10 mg/kg, iv, F344 | – | 2810
20 min, 25 mg/kg, oral, Harlan Sprague Dawley | – | 17200
40 min, 10 mg/kg, iv, F344 | – | 544

ClC(Cl)=C(Cl)Cl [perchloroethylene]
concentration in blood [ng/mL]
Settings | 0.5 h | 1 h | 2 h | 3 h | 4 h
rat [46] | 17000 | 45000 | 39600 | 31600 | 42600
rat [47] | 3610 | 15200 | 19600 | 13900 | 29200
rat [48] | 6940 | 32300 | 29900 | 17500 | 32300
rat [49] | 20600 | 21100 | 21500 | 25200 | 29200

O=C(O)C(Br)Br [dibromoacetic acid]
amount in urine after dosing [µg]
Settings | Rat [50] | Rat [51] | Rat [52] | Rat [53] | Rat [54] | Rat [55]
2 h | 17.7 | – | – | 0.735 | – | –
4 h | 54.6 | 8.7 | 61.7 | – | 55.8 | –
8 h | 44.1 | 3.52 | – | – | – | 11.7
24 h | 19.1 | 3.52 | 37.7 | 4.47 | 81 | 1.52
48 h | 4.62 | – | 2.24 | – | 5.03 | –

From EPA's CvTdb concentration-time database
